# Measured values as given in patent US20040019082A1, “Reversible infertility in male mice following oral administration of alkylated imino sugars: a non-hormonal approach to male contraception” (United Therapeutics Corporation, priority 2002, published 2004).
# Where two headings read alike, the source gives them in different places.
# Tests used:
# [1] = test system: male C57BL/6 mice; test: Mating assay, fertility of male mice; format: in vivo, mouse
# Source text: Treatment of mice—Male C57BL/6 mice were housed under standard non-sterile conditions. The mice were provided with water ad lib. and prior to drug administration were fed a diet of pelleted mouse chow (expanded Rat and Mouse Chow 3, SDS Ltd.) To administer the compounds of the present invention, the mice were fed a diet of powdered mouse chow (expanded Rat and Mouse Chow 1, ground, SDS Ltd.) containing either NB-DNJ, NB-DGJ, NN-6-MeDGJ, or DNJ. The diet and compound (both as dry solids) were mixed thoroughly, stored at room temperature, and used within 7 days of mixing.
# Mating assays—To assess the fertility of male mice that were fed on a diet containing an iminosugar, a mating assay was used: typically six week old male C57BL/6 mice in groups of three were administered diet containing compound for five weeks (unless otherwise specified), after which each of them was caged with four untreated female C57BL/6 mice, and provided with standard pelleted chow. Females were at least 11 weeks old, and age-matched in each experiment. The male was removed from the females after 7 or 9 days, depending on the experiment; the females were monitored for vaginal mucous plugs, pregnancies, and, if any, litter sizes. To study any effect on female fertility six-week-old female C57BL/6 mice were treated with NB-DNJ for five weeks, after which each of them was caged with a non-treated age-matched male for four days.
# [2] = Body, gonad and organ weights of treated mice; format: in vivo, mouse
# [3] = test system: epididymal spermatozoa; test: Electron microscopy of epididymal spermatozoa; format: in vivo, mouse
# Procedure: For scanning electron microscopy, dried smears of murine spermatozoa were prepared as described above. Cells were fixed for 20 min in 4% paraformaldehyde in PBS, transferred to 70, 80 and 95% ethanol, critical-point dried in a Polaron CPD7501 instrument, gold-coated using a Nanotech Semprep2, and examined in a Hitachi S800 FEG-SEM at 3 kV. For transmission electronmicroscopy epididymal spermatozoa were collected in 1 mg/ml cold water soluble polyvinylalcohol in PBS, and spun for 10 min. at 600×g. Pelleted cells were fixed overnight at 4° C. with 1% glutaraldehyde, 0.2% picric acid in 0.2 M cacodylic acid pH 7.4, washed once in 0.1 M cacodylic acid pH 7.4, and stored in 70% ethanol. Cells were postfixed with 2% osmium letroxide, embedded in araldite, sectioned at 70 nm, stained with uranyl acetate/lead citrate, and examined with a JEOL JEM-100CX microscope at 80 kV.
# [4] = test system: epididymal sperm; test: Epididymal sperm count; format: in vivo, mouse; details: at loss of fertility caused by the drug
# [5] = test system: ganglioside GM1 on the surface of mouse splenocytes; details: cited from earlier work
# [6] = molecular target: T1, alpha-glucosidase 1 (Homo sapiens, UniProt Q13724); details: involved in N-glycan synthesis; cited from earlier work
# T1 sequence (Q13724 1-837): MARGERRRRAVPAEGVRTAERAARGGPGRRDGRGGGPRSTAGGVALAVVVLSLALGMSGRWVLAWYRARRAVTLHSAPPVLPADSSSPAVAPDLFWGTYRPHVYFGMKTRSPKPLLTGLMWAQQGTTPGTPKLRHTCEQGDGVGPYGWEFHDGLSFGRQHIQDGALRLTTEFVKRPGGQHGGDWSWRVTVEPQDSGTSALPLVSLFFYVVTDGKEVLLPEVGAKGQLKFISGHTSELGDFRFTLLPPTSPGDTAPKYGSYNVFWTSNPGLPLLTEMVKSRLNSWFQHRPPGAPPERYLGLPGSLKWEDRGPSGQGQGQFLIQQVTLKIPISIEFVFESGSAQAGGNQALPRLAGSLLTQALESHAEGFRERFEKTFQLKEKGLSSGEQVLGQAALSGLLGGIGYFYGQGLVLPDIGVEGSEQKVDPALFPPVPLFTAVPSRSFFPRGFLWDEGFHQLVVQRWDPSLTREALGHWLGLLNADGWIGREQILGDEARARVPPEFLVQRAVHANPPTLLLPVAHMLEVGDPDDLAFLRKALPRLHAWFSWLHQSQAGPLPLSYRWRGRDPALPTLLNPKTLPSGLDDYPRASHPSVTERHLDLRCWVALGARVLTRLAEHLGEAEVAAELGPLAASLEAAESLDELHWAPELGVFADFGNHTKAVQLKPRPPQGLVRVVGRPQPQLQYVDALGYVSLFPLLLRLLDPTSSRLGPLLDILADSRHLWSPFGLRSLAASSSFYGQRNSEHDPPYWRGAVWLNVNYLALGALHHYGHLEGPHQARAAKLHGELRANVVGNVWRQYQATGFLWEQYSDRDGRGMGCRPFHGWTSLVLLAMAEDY
# [7] = test system: mouse models with impaired GSL degradation; details: in vivo; cited from earlier work
# [8] = 5 mg/kg per day, five weeks in diet
# [9] = 2400 mg/kg per day, taken off the drug after five weeks of treatment
# [10] = highest dose (2400 mg/kg/day), n=10
smiles,measurement,setting,value
"CCCCN1C[C@H](O)[C@@H](O)[C@H](O)[C@H]1CO [NB-DNJ, N-butyldeoxynojirimycin]",fertility,"[1]; 1 mg/kg per day, five weeks in diet",did not affect
same,fertility (pregnancies per male),[1]; [8],reduced their fertility
same,litter size,[1]; [8],reduced
same,fertility,"[1]; 15 mg/kg per day, five weeks in diet",completely infertile
same,"fertility, capacity to sire normal-sized litters","[1]; 2400 mg/kg per day oral, one or two weeks of treatment, six-week old males",this capacity was maintained
same,"infertility, length of treatment needed","[1]; 2400 mg/kg per day oral, weekly increments",infertile after at least three weeks
same,litter size after withdrawal,[1]; [9],normal-sized litters
same,regain of fertility after withdrawal,[1]; [9],regained fertility in the fourth week
same,fertility,"[1]; 13 week old males, 2400 mg/kg per day for five weeks",complete sterility
same,frequency of post-coital vaginal mucous plugs (mating behavior),"[1]; NB-DNJ dose range, five weeks in diet",not affected
same,dose required for induced infertility,"[1]; oral, male mice",at least 15 mg/kg/day
same,weights of testes and epididymal compartments,[2]; 1200 and 2400 mg/kg/day,decreased proportionally to body weight
same,combined cauda epididymis/vas deferens weight,[2]; [10],43±7 % of control
same,whole body weight,[2]; [10],60±5 % of control
same,body or gonad weights,"[2]; low dose, 15-150 mg/kg/day",did not affect
same,tails and mitochondria of epididymal spermatozoa,"[3]; 1,200 mg/kg/day (FIG. 5)",induced a number of abnormalities
same,"acrosomal elements covering the nuclei, ultrastructural level","[3]; 1,200 mg/kg/day (FIGS. 5D-5F)",no typical acrosomal elements were seen
same,epididymal sperm count,[4],not associated with a reduction
same,reduction of ganglioside GM1 levels,[5]; 600 mg/kg per day,10%
same,reduction of ganglioside GM1 levels,[5]; 2400 mg/kg per day,70%
same,inhibition of alpha-glucosidase 1,[6],potent inhibitor
same,therapeutic effect,[7],therapeutically effective
